From patent publication US9604900B2, “Inhibitors of viral replication, their process of preparation and their therapeutical uses” (LABORATOIRE BIODIM, priority 2011, dated 2017)

Tested on: NL4-3 strain of HIV-1
Assay: HIV replication inhibition: CellTiter-Glo cyto-protection assay in MT4 cells infected with NL4-3 virus
Format: cell-based
Conditions: Human immunodeficiency virus 1, NL43, 120 h, concentration giving 50% cyto-protection, 5 days incubation, CellTiter-Glo viability readout
Experimental: The antiviral activity, particularly against HIV, of compounds according to the invention is evaluated by the protocol described below.
Preparation of Virus stock of the NL4-3 strain of HIV-1 (Adachi et al, J Virol, 1986, 59(2):284-91).
The virus was prepared as described in Lopez et al (Lopez et al, Proc Natl Acad Sci USA., 2006, 103(40):14947-52, by transfecting 2×10^6 293 T cells (CRL-1573, ATCC) with following modifications: 6 μg of NL4-3 proviral DNA molecular clone were mixed with Fugene 6 transfection reagent from Roche, and used according to manufacturer's instructions. Forty eight hours later, transfected cell supernatants were harvested, filtered through 0.45-μm-pore-size filters, quantified for HIV-1 p24 antigen by using a Innotest HIV antigen mAb assay (Ingen) according to manufacturer's instructions, and used in infection experiments.
Serial dilutions of compounds to be tested were prepared in complete RPMI medium from 10 mM DMSO stock solutions, and distributed in a volume of 20 μl in 96 well Falcon 353072 Microtest™ tissue culture plate, in order to get 0.5% DMSO final concentration in each well, after the addition of infected cells. Control wells contained also 0.5% DMSO final concentration but no compound.
MT4 cells (from the NIH AIDS Research and Reference Reagent Program) in RPMI complete medium were counted (10×10^6 cells per well in Falcon 353047 Multiwell™ 24 well) and infected for 2 hours at 37°, at a multiplicity of infection (moi) of 0.0001-0.00001. Cells were then centrifuged 3 min at 3000 rpm, and washed two times in 1 ml PBS to remove viruses that have not entered in cells. Infected cells were resuspended in complete RPMI at 1.25×10^6 cells/ml, and 80 μl of infected cells were distributed in each well containing compounds to be tested or control wells. The plates were then incubated at 37° for 5 days.
Assay used to measure the inhibition of HIV replication by the compounds (according to Gregg S. Jones et al., Antimicrobial Agents and Chemotherapy, 2009, 53 (3): 1194-1203).
After 5 days of incubation, 50 μl of CellTiter-Glo reagent (Promega Biosciences, Inc., Madison Wis., USA) were added to each well. Cell lysis was carried out at room temperature during 10 min, 150 μl of lysates were transferred in Packard Optiplate 96 well, and luminescence was read on a Fluoroskan (Thermo Scientific).

Compound | EC50 [µM]
CC(C)(C)OC(C(=O)O)c1ccc(-c2cccc(-c3cccnc3)c2)cc1-c1ccc2c(c1)CCCO2 (stereo not shown) [Example 30, methyl 2-(tert-butoxy)-2-[2-(3,4-dihydro-2H-1-benzopyran-6-yl)-4-[3-(pyridin-3-yl)phenyl]phenyl]acetic acid] | 4.2
CC1(C)CC=C(c2cccc(C(F)(F)F)c2C(OC(C)(C)C)C(=O)O)CC1 (stereo not shown) [Example 36, 2-(tert-butoxy)-2-[2-(4,4-dimethylcyclohex-1-en-1-yl)-6-(trifluoromethyl)phenyl]acetic acid] | 4.5
Cc1cccc(C(OC(C)(C)C)C(=O)O)c1-c1ccc2c(c1)CCCO2 (stereo not shown) [Example 11, 2-(tert-butoxy)-2-[2-(3,4-dihydro-2H-1-benzopyran-6-yl)-3-methylphenyl] acetic acid] | 48
CC(C)(C)OC(C(=O)O)c1c(C(F)(F)F)ccc(F)c1-c1ccc2c(c1)CCCO2 (stereo not shown) [Example 34, 2-(tert-butoxy)-2-[2-(3,4-dihydro-2H-1-benzopyran-6-yl)-3-fluoro-6-(trifluoromethyl)phenyl]acetic acid] | 14
CC(C)(C)OC(C(=O)O)c1c(-c2ccc3c(c2)CCCO3)ccc2ncccc12 (stereo not shown) [Example 20, 2-(tert-butoxy)-2-[6-(3,4-dihydro-2H-1-benzopyran-6-yl)quinolin-5-yl]acetic acid] | 3.8
CC(C)(C)OC(C(=O)O)c1cccc(C(F)(F)F)c1-c1ccc2c(c1)CCCO2 (stereo not shown) [Example 21, 2-(tert-butoxy)-2-[2-(3,4-dihydro-2H-1-benzopyran-6-yl)-3-trifluoromethylphenyl]acetic acid] | 9.7
Cc1cccc(-c2ccc3c(c2)CCCO3)c1C(OC(C)(C)C)C(=O)O (stereo not shown) [Example 22, 2-(tert-butoxy)-2-[2-(3,4-dihydro-2H-1-benzopyran-6-yl)-6-methylphenyl]acetic acid] | 26
CC(C)(C)OC(C(=O)O)c1c(-c2ccc3c(c2)CCCO3)cccc1C(F)(F)F (stereo not shown) [Example 33, 2-(tert-butoxy)-2-[2-(3,4-dihydro-2H-1-benzopyran-6-yl)-6-(trifluoromethyl)phenyl]acetic acid] | 25
CC(C)(C)OC(C(=O)O)c1c(C(F)(F)F)ccc(OCc2ccccc2)c1-c1ccc2c(c1)CCCO2 (stereo not shown) [Example 35, 2-[3-(benzyloxy)-2-(3,4-dihydro-2H-1-benzopyran-6-yl)-6-(trifluoromethyl)phenyl]-2-(tert-butoxy)acetic acid] | 3.2
Cc1ccc(C)c(C(OC(C)(C)C)C(=O)O)c1-c1ccc2c(c1)CCCO2 (stereo not shown) [Example 27, 2-(tert-butoxy)-2-[2-(3,4-dihydro-2H-1-benzopyran-6-yl)-3,6-dimethylphenyl]acetic acid] | 1.6
